Data from PubChem BioAssay AID272 (DTP/NCI, 2004).
Values joined by “and” are separate entries in the source; they are usually repeats but may differ in a detail not shown here. Identical values can stand only once. Inconclusive results are not listed.

System: Lewis lung carcinoma i.m., BDF1 mice, T/C %
Experiment: NCI In Vivo Anticancer Drug Screen. Data for tumor model Lewis Lung Carcinoma (intramuscular) in B6D2F1 (BDF1) mice
In short: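 Value is the ratio of a treated-group measurement (T) to the matching vehicle-control measurement (C), using either survival or tumour size in mice bearing transplanted tumours.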

[1] = endpoint: mean tumor weight (est.), dose: 0.25 mg/kg/injection, schedule: Q01DX011 (ip), vehicle: saline, higher = larger tumour
[2] = endpoint: mean tumor weight (est.), dose: 0.5 mg/kg/injection, schedule: Q01DX011 (ip), vehicle: saline, higher = larger tumour

c1ccc2c(c1)ccc1c[n+]3ccccc3cc12
T/C [1]: 53 % of control | T/C [2]: 47 % of control

N[C@H](C(=O)O)[C@H]1ON=C(Cl)[C@@H]1O
T/C (endpoint: median survival time, dose: 8.0 mg/kg/injection, schedule: Q01DX013 (ip), vehicle: saline, higher = longer survival): 92 % of control | T/C (endpoint: median survival time, dose: 16.0 mg/kg/injection, schedule: Q01DX013 (ip), vehicle: saline, higher = longer survival): 107 % of control

O=C(O)c1[nH]c(=O)[nH]c(=O)c1F
T/C (endpoint: median survival time, dose: 0.19 mg/kg/injection, schedule: Q01DX011 (ip), vehicle: sodium bicarbonate, higher = longer survival): 100 % of control | T/C (endpoint: median survival time, dose: 0.38 mg/kg/injection, schedule: Q01DX011 (ip), vehicle: sodium bicarbonate, higher = longer survival): 111 % of control | T/C (endpoint: median survival time, dose: 0.75 mg/kg/injection, schedule: Q01DX011 (ip), vehicle: sodium bicarbonate, higher = longer survival): 92 % of control | T/C (endpoint: median survival time, dose: 1.5 mg/kg/injection, schedule: Q01DX011 (ip), vehicle: sodium bicarbonate, higher = longer survival): 100 % of control | T/C (endpoint: median survival time, dose: 2.5 mg/kg/injection, schedule: Q01DX011 (ip), vehicle: other, higher = longer survival): 105 % of control | T/C (endpoint: median survival time, dose: 3.12 mg/kg/injection, schedule: Q01DX011 (ip), vehicle: sodium bicarbonate, higher = longer survival): 101 % of control | T/C (endpoint: median tumor weight (est.), dose: 0.19 mg/kg/injection, schedule: Q01DX011 (ip), vehicle: sodium bicarbonate, higher = larger tumour): 96 % of control | T/C (endpoint: median tumor weight (est.), dose: 0.38 mg/kg/injection, schedule: Q01DX011 (ip), vehicle: sodium bicarbonate, higher = larger tumour): 85 % of control | T/C (endpoint: median tumor weight (est.), dose: 0.75 mg/kg/injection, schedule: Q01DX011 (ip), vehicle: sodium bicarbonate, higher = larger tumour): 101 % of control | T/C (endpoint: median tumor weight (est.), dose: 1.5 mg/kg/injection, schedule: Q01DX011 (ip), vehicle: sodium bicarbonate, higher = larger tumour): 108 % of control | T/C (endpoint: median tumor weight (est.), dose: 3.12 mg/kg/injection, schedule: Q01DX011 (ip), vehicle: sodium bicarbonate, higher = larger tumour): 81 % of control

Cc1ccc2c(C)c3c(ccc4ccccc43)c[n+]2c1
T/C (endpoint: mean tumor weight (est.), dose: 1.25 mg/kg/injection, schedule: Q01DX011 (ip), vehicle: saline, higher = larger tumour): 87 % of control | T/C (endpoint: mean tumor weight (est.), dose: 2.5 mg/kg/injection, schedule: Q01DX011 (ip), vehicle: saline, higher = larger tumour): 96 % of control | T/C (endpoint: mean tumor weight (est.), dose: 5.0 mg/kg/injection, schedule: Q01DX011 (ip), vehicle: saline, higher = larger tumour): 72 % of control | T/C (endpoint: median survival time, dose: 1.25 mg/kg/injection, schedule: Q01DX011 (ip), vehicle: saline, higher = longer survival): 106 % of control | T/C (endpoint: median survival time, dose: 2.5 mg/kg/injection, schedule: Q01DX011 (ip), vehicle: saline, higher = longer survival): 110 % of control | T/C (endpoint: median survival time, dose: 5.0 mg/kg/injection, schedule: Q01DX011 (ip), vehicle: saline, higher = longer survival): 100 % of control

CO[C@H](C(=O)[C@@H](O)[C@@H](C)O)[C@@H]1Cc2cc3cc(OC4CC(OC5CC(O)C(O)C(C)O5)C(O)C(C)O4)c(C)c(O)c3c(O)c2C(=O)[C@H]1OC1CC(OC2CC(OC3CC(C)(O)C(O)C(C)O3)C(O)C(C)O2)C(O)C(C)O1 (some centres undefined)
T/C (endpoint: mean tumor weight, dose: 0.06 mg/kg/injection, schedule: Q01DX011 (ip), vehicle: water, higher = larger tumour): 89 % of control | T/C (endpoint: mean tumor weight, dose: 0.12 mg/kg/injection, schedule: Q01DX011 (ip), vehicle: water, higher = larger tumour): 107 % of control | T/C (endpoint: mean tumor weight, dose: 0.25 mg/kg/injection, schedule: Q01DX011 (ip), vehicle: water, higher = larger tumour): 111 % of control | T/C (endpoint: mean tumor weight, dose: 0.5 mg/kg/injection, schedule: Q01DX011 (ip), vehicle: water, higher = larger tumour): 66 % of control | T/C (endpoint: median survival time, dose: 0.12 mg/kg/injection, schedule: Q01DX011 (ip), vehicle: water, higher = longer survival): 108 % of control and 114 % of control | T/C (endpoint: median survival time, dose: 0.13 mg/kg/injection, schedule: Q01DX009 (ip), vehicle: water, higher = longer survival): 94 % of control and 104 % of control | T/C (endpoint: median survival time, dose: 0.25 mg/kg/injection, schedule: Q01DX009 (ip), vehicle: water, higher = longer survival): 97 % of control and 101 % of control | T/C (endpoint: median survival time, dose: 0.25 mg/kg/injection, schedule: Q01DX011 (ip), vehicle: water, higher = longer survival): 92 % of control and 109 % of control | T/C (endpoint: median survival time, dose: 0.5 mg/kg/injection, schedule: Q01DX009 (ip), vehicle: water, higher = longer survival): 95 % of control and 108 % of control | T/C (endpoint: median survival time, dose: 0.5 mg/kg/injection, schedule: Q01DX011 (ip), vehicle: water, higher = longer survival): 103 % of control and 114 % of control | T/C (endpoint: median survival time, dose: 1.0 mg/kg/injection, schedule: Q01DX009 (ip), vehicle: water, higher = longer survival): 111 % of control

Cc1nn(CCO)c(C)c1N=[N+]([O-])c1c(C)nn(CCO)c1C
T/C (endpoint: median survival time, dose: 15.0 mg/kg/injection, schedule: Q02DX011 (ip), vehicle: saline with Tween-80, higher = longer survival): 105 % of control | T/C (endpoint: median survival time, dose: 30.0 mg/kg/injection, schedule: Q02DX011 (ip), vehicle: saline with Tween-80, higher = longer survival): 86 % of control | T/C (endpoint: median survival time, dose: 60.0 mg/kg/injection, schedule: Q02DX011 (ip), vehicle: saline with Tween-80, higher = longer survival): 97 % of control

CC(=O)OC1CC(OC2C(O)CC(OC3C(O)CC(OC4CCC5(C)C(CCC6C5CCC5(C)C(C7=CC(=O)OC7)C(O)CC65O)C4)OC3C)OC2C)OC(C)C1OC1OC(CO)C(O)C(O)C1O (centres undefined)
T/C (endpoint: median survival time, dose: 3.0 mg/kg/injection, schedule: Q01DX011 (ip), vehicle: saline, higher = longer survival): 106 % of control | T/C (endpoint: median survival time, dose: 6.0 mg/kg/injection, schedule: Q01DX011 (ip), vehicle: saline, higher = longer survival): 110 % of control | T/C (endpoint: median survival time, dose: 12.0 mg/kg/injection, schedule: Q01DX011 (ip), vehicle: saline, higher = longer survival): 102 % of control | T/C (endpoint: median survival time, dose: 24.0 mg/kg/injection, schedule: Q01DX011 (ip), vehicle: saline, higher = longer survival): 104 % of control | T/C (endpoint: median survival time, dose: 48.0 mg/kg/injection, schedule: Q01DX011 (ip), vehicle: saline, higher = longer survival): 102 % of control

COc1cc([C@@H]2c3cc4c(cc3[C@H](O)[C@H]3COC(=O)[C@H]23)OCO4)cc(OC)c1OC
T/C (endpoint: mean tumor weight, dose: 0.25 mg/kg/injection, schedule: Q01DX011 (ip), vehicle: Klucel (hydroxypropylcellulose) (HPC), higher = larger tumour): 100 % of control | T/C (endpoint: mean tumor weight, dose: 0.5 mg/kg/injection, schedule: Q01DX011 (ip), vehicle: Klucel (hydroxypropylcellulose) (HPC), higher = larger tumour): 77 % of control | T/C (endpoint: mean tumor weight, dose: 1.0 mg/kg/injection, schedule: Q01DX011 (ip), vehicle: Klucel (hydroxypropylcellulose) (HPC), higher = larger tumour): 105 % of control | T/C (endpoint: median survival time, dose: 0.13 mg/kg/injection, schedule: Q01DX011 (ip), vehicle: Klucel (hydroxypropylcellulose) (HPC), higher = longer survival): 87 % of control | T/C (endpoint: median survival time, dose: 0.25 mg/kg/injection, schedule: Q01DX011 (ip), vehicle: Klucel (hydroxypropylcellulose) (HPC), higher = longer survival): 107 % of control | T/C (endpoint: median survival time, dose: 0.5 mg/kg/injection, schedule: Q01DX011 (ip), vehicle: Klucel (hydroxypropylcellulose) (HPC), higher = longer survival): 114 % of control

C1CN1c1nc(N2CC2)nc(N2CC2)n1
T/C (endpoint: mean tumor weight (est.), dose: 0.06 mg/kg/injection, schedule: Q01DX011 (ip), vehicle: saline, higher = larger tumour): 78 % of control | T/C (endpoint: mean tumor weight (est.), dose: 0.12 mg/kg/injection, schedule: Q01DX011 (ip), vehicle: saline, higher = larger tumour): 67 % of control | T/C [1]: 37 % of control | T/C [2]: 37 % of control | T/C (endpoint: mean tumor weight, dose: 0.12 mg/kg/injection, schedule: Q01DX011 (ip), vehicle: saline, higher = larger tumour): 73 % of control | T/C (endpoint: mean tumor weight, dose: 0.25 mg/kg/injection, schedule: Q01DX011 (ip), vehicle: saline, higher = larger tumour): 73 % of control | T/C (endpoint: median survival time, dose: 0.06 mg/kg/injection, schedule: Q01DX011 (ip), vehicle: saline, higher = longer survival): 97 % of control | T/C (endpoint: median survival time, dose: 0.1 mg/kg/injection, schedule: Q01DX011 (ip), vehicle: saline, higher = longer survival): 116 % of control | T/C (endpoint: median survival time, dose: 0.12 mg/kg/injection, schedule: Q01DX011 (ip), vehicle: saline, higher = longer survival): 100 % of control and 106 % of control | T/C (endpoint: median survival time, dose: 0.2 mg/kg/injection, schedule: Q01DX011 (ip), vehicle: saline, higher = longer survival): 106 % of control | T/C (endpoint: median survival time, dose: 0.25 mg/kg/injection, schedule: Q01DX011 (ip), vehicle: saline, higher = longer survival): 110 % of control | T/C (endpoint: median survival time, dose: 0.4 mg/kg/injection, schedule: Q01DX011 (ip), vehicle: saline, higher = longer survival): 89 % of control | T/C (endpoint: median survival time, dose: 0.5 mg/kg/injection, schedule: Q01DX011 (ip), vehicle: saline, higher = longer survival): 122 % of control

COc1cc(OC)c(OC)cc1/C=C\c1ccnc2ccccc12
T/C (endpoint: mean tumor weight (est.), dose: 50.0 mg/kg/injection, schedule: Q01DX011 (ip), vehicle: saline with Tween-80, higher = larger tumour): 60 % of control | T/C (endpoint: mean tumor weight (est.), dose: 100.0 mg/kg/injection, schedule: Q01DX011 (ip), vehicle: saline with Tween-80, higher = larger tumour): 51 % of control | T/C (endpoint: mean tumor weight (est.), dose: 200.0 mg/kg/injection, schedule: Q01DX011 (ip), vehicle: saline with Tween-80, higher = larger tumour): 56 % of control | T/C (endpoint: mean tumor weight (est.), dose: 400.0 mg/kg/injection, schedule: Q01DX011 (ip), vehicle: saline with Tween-80, higher = larger tumour): 34 % of control | T/C (endpoint: median survival time, dose: 50.0 mg/kg/injection, schedule: Q01DX011 (ip), vehicle: saline with Tween-80, higher = longer survival): 105 % of control | T/C (endpoint: median survival time, dose: 100.0 mg/kg/injection, schedule: Q01DX011 (ip), vehicle: saline with Tween-80, higher = longer survival): 103 % of control | T/C (endpoint: median survival time, dose: 200.0 mg/kg/injection, schedule: Q01DX011 (ip), vehicle: saline with Tween-80, higher = longer survival): 86 % of control | T/C (endpoint: median survival time, dose: 400.0 mg/kg/injection, schedule: Q01DX011 (ip), vehicle: saline with Tween-80, higher = longer survival): 100 % of control

FC(F)(F)c1ccc(-c2ccc(OCCN3CCCC3)cc2)cc1
T/C (endpoint: mean tumor weight, dose: 3.13 mg/kg/injection, schedule: Q01DX011 (ip), vehicle: saline, higher = larger tumour): 57 % of control | T/C (endpoint: mean tumor weight, dose: 6.25 mg/kg/injection, schedule: Q01DX011 (ip), vehicle: saline, higher = larger tumour): 62 % of control | T/C (endpoint: median survival time, dose: 3.13 mg/kg/injection, schedule: Q01DX011 (ip), vehicle: saline, higher = longer survival): 104 % of control | T/C (endpoint: median survival time, dose: 6.25 mg/kg/injection, schedule: Q01DX011 (ip), vehicle: saline, higher = longer survival): 100 % of control

CC(C)(C)CC(C)(C)NCC(O)COc1ccc(C(C)(C)c2ccc(OCC(O)CNC(C)(C)CC(C)(C)C)cc2)cc1 (centres undefined)
T/C (endpoint: mean tumor weight (est.), dose: 3.12 mg/kg/injection, schedule: Q01DX011 (ip), vehicle: other, higher = larger tumour): 68 % of control

CCCCCCCCCCCCCCCC(=O)N(C/C=C/CN(CCCN(C)C)C(=O)CCCCCCCCCCCCCCC)CCCN(C)C
T/C (endpoint: mean tumor weight (est.), dose: 12.5 mg/kg/injection, schedule: Q01DX011 (ip), vehicle: saline with Tween-80, higher = larger tumour): 44 % of control | T/C (endpoint: median survival time, dose: 12.5 mg/kg/injection, schedule: Q01DX011 (ip), vehicle: saline with Tween-80, higher = longer survival): 92 % of control
